Data set [1] concerns Arabidopsis thaliana Columbia (Col0) seedlings. Description: Primary root elongation of etiolated seedlings on compound medium. It is filed as in vivo. The note with it: in vivo.
The test system is the same in data set [2]. Description: Lateral root initiation (lateral roots + lateral root primordia, number and density). It counts as in vivo. The following applies: in vivo.
Data set [3] concerns Arabidopsis thaliana seeds. Description: Arabidopsis thaliana seed germination assay. The note with it: in vivo. It is filed as in vivo.
Data set [4] deals with tobacco epidermal strips. Description: Stomatal closure assay on epidermal strips. It is filed as cell-based, Nicotiana tabacum.
The test system of data set [5] is etiolated Arabidopsis thaliana seedlings. The following applies: in vivo.
Data set [6] relates to Arabidopsis thaliana seedlings. The following applies: in vivo.

As for `CCOP(=O)(OCc1ccccn1)c1ccccc1` (centres unmarked) [Analogue D2, Ethyl (pyridin-2-ylmethyl) phenylphosphonate], in data set [1], the PR is given as 0 and the “effect on primary root growth” value is on record as “did not show a significant effect”. In data set [2], the LR is 0, the “effect on LR+ LRP density (per cm primary root)” value (from here on “effect … (per cm primary root)”) is listed as “did not significantly affect the LR numbers” and the “effect on number of LR+ LRP (lateral root initiation)” value (shortened to “effect on number of LR+ LRP”) is given as “did not have a significant effect”. In data set [3], this compound registered a Seed germination of 0. Besides, in data set [4], the Stomata turned out to be 0 and the “effect on stomatal aperture” value is reported as “did not affect the size of the stomatal aperture”. The AR in data set [5] came out at 0. Besides, in data set [6], the Shoot is given as 0.
As to `CCOP(=O)(Nc1cccnc1)c1ccccc1` (centres unmarked) [Analogue D3, Ethyl N-(pyridin-3-yl)-P-(phenyl)phosphonamidate], in data set [1], the PR is on record as 0 and the “effect on primary root growth” value is given as “did not show a significant effect”. In data set [2], the LR is reported as 0, the “effect … (per cm primary root)” value is “increased the LR density” and the “effect on number of LR+ LRP” value is “enhanced lateral root induction”. The same compound had a Seed germination in data set [3] of 0. Moreover, in data set [4], the Stomata amounted to 0 and the “effect on stomatal aperture” value was “intermediate stomatal closure”. For the same compound, the AR in data set [5] amounted to 0. The compound also displayed a Shoot in data set [6] of 0.
Take `CCOP(=O)(NCc1ccccn1)c1ccc(F)c2ccccc12` (centres unmarked) [Analogue E2, Ethyl N-(pyridin-2-ylmethyl)-P-(4-fluoronapht-1-yl)phosphonamidate]: in data set [1], the PR was found to be 0 and the “effect on primary root growth” value was “did not show a significant effect”. In addition, in data set [2], the LR entry is listed as “+”, the “effect … (per cm primary root)” value is “reduced the numbers of LR+ LRP similarly to ABA” and the “effect on number of LR+ LRP” value is given as “modest to weak inhibitors of lateral root formation”. For the same compound, in data set [3], the Seed germination came out at 0. In addition, in data set [4], the Stomata entry is on record as “+++”, the “stomata closure to % of the start opening” value turned out to be 50% and the “time to 50% of closure of stomata” value is 30 min. In data set [5], the AR entry is on record as “−” and the “effect on adventitious root formation” value is reported as “stimulated AR formation”. Moreover, in data set [6], the Shoot entry is reported as “−” and the “effect on shoot development” value is reported as “stimulated the development of leaves in comparison with the control”.
For the compound `CCOP(=O)(NCc1cccnc1)c1ccc(Br)c2ccccc12` (centres unmarked) [Analogue E3, Ethyl N-(pyridin-3-ylmethyl)-P-(4-bromonapht-1-yl)phosphonamidate], in data set [1], the PR was 0 and the “effect on primary root growth” value is “did not show a significant effect”. In data set [2], the LR result is on record as “+”, the “effect … (per cm primary root)” value is reported as “reduced the numbers of LR+ LRP similarly to ABA” and the “effect on number of LR+ LRP” value is “modest to weak inhibitors of lateral root formation”. This compound returned a Seed germination in data set [3] of 0. In data set [4], the Stomata result is on record as “++” and the “effect on stomatal aperture” value was “intermediate stomatal closure”. In addition, the AR entry in data set [5] is “−”. For the same compound, in data set [6], the Shoot was determined as 0.
As to `CCOP(=O)(NCc1ccccc1)c1ccc(Br)c2ccccc12` (centres unmarked) [Analogue E4, Ethyl N-(benzyl)-P-(4-bromonapht-1-yl)phosphonamidate], in data set [1], the PR result was “+++” and the “effect on primary root growth” value is given as “strongly inhibited primary root growth”. In data set [2], the LR result is “+++”, the “effect … (per cm primary root)” value is listed as “strong density reduction (even stronger than ABA)” and the “effect on number of LR+ LRP” value is “strong inhibitors”. For the same compound, in data set [3], the Seed germination result is “+” and the “effect on seed germination” value is “did not inhibit the germination”. Besides, in data set [4], the Stomata result is given as “++” and the “effect on stomatal aperture” value is reported as “intermediate stomatal closure”. In data set [5], the AR result was “+++”; the “cellular toxicity (inhibitory effect on plant development)” value is given as “exhibits cellular toxicity at the concentration used”; the “effect on adventitious root formation” value is given as “reduction of adventitious root formation, respectively stronger or similar to pyrabactin”. Further, in data set [6], the Shoot result is given as “+++” and the “effect on shoot development” value was “strong inhibition of the seedling's shoot development”.
Consider `CCOP(=O)(NCc1cccnc1)c1ccc(F)c2ccccc12` (centres unmarked) [Analogue E5, Ethyl N-(pyridin-3-ylmethyl)-P-(4-fluoronapht-1-yl)phosphonamidate], for which, in data set [1], the PR entry is “+” and the “effect on primary root growth” value is “modest inhibitors of primary root elongation”. For the same compound, in data set [2], the LR entry is on record as “+” and the “effect on number of LR+ LRP” value is given as “modest to weak inhibitors of lateral root formation”. Further, in data set [3], the Seed germination result is recorded as “+++” and the “effect on seed germination” value is reported as “significant reduction of the percentage of germinating seeds”. Besides, in data set [4], the Stomata entry is listed as “+” and the “effect on stomatal aperture” value is on record as “intermediate stomatal closure”. In data set [5], this compound displayed an AR of 0. For the same compound, the Shoot in data set [6] is listed as 0.
For `CCOP(=O)(NCc1ccccc1)c1ccc(F)c2ccccc12` (centres unmarked) [Analogue E6, Ethyl N-(benzyl)-P-(4-fluoronapht-1-yl)phosphonamidate], in data set [1], the PR entry is listed as “++” and the “effect on primary root growth” value is on record as “reducing the root growth comparable to pyrabactin”. In data set [2], the LR result is on record as “+++”, the “effect … (per cm primary root)” value was “strong density reduction (even stronger than ABA)” and the “effect on number of LR+ LRP” value is on record as “strong inhibitors”. Further, in data set [3], the Seed germination was found to be 0 and the “effect on seed germination” value is “did not inhibit the germination”. Further, in data set [4], the Stomata result is on record as “+++” and the “effect on stomatal aperture” value is “strongly induced stomatal closure”. In data set [5], the AR entry was “+++” and the “effect on adventitious root formation” value is on record as “reduction of adventitious root formation, respectively stronger or similar to pyrabactin”. Also, in data set [6], the Shoot entry is listed as “++” and the “effect on shoot development” value was “inhibition of leaf size comparable with pyrabactin”.
With `CCOP(=O)(NCc1ccncc1)c1ccc(Br)c2ccccc12` (centres unmarked) [Analogue E7, Ethyl N-(pyridin-4-ylmethyl)-P-(4-bromonapht-1-yl)phosphonamidate], in data set [1], the PR result is on record as “+++” and the “effect on primary root growth” value is given as “strongly inhibited primary root growth”. In data set [2], the LR entry was “+++”, the “LR+ LRP density” value is reported as “around 5 LR+ LRP per cm primary root” and the “effect on number of LR+ LRP” value is “strong inhibitors”. The same compound gave a Seed germination in data set [3] of 0. In data set [4], the Stomata is 0 and the “effect on stomatal aperture” value is “did not affect the size of the stomatal aperture”. Also, in data set [5], the AR entry is “+++” and the “effect on adventitious root formation” value was “reduction of adventitious root formation, respectively stronger or similar to pyrabactin”. Moreover, in data set [6], the Shoot result is “+++” and the “effect on shoot development” value is given as “strong inhibition of the seedling's shoot development”.
